Experiments:
Type in all cases: cell-based
mPanx1 [1] = molecular target: T1, mPanx1 (Mus musculus, UniProt Q9JIP4); experiment: whole-cell patch clamp, CHO cells transfected with mPanx1, single dose […]; settings: read-out: I% ^a
T1 construct: gene Panx1

mPanx1 [2] = molecular target: T1, mPanx1; experiment: whole-cell patch clamp, CHO cells transfected with mPanx1, dose-response
mPanx1 [3] = molecular target: T1, mPanx1; experiment: whole-cell patch clamp, CHO cells transfected with mPanx1, dose-response (IC50 low micromolar, number not given); settings: read-out: I% ^a

T1 sequence (Q9JIP4 whole entry): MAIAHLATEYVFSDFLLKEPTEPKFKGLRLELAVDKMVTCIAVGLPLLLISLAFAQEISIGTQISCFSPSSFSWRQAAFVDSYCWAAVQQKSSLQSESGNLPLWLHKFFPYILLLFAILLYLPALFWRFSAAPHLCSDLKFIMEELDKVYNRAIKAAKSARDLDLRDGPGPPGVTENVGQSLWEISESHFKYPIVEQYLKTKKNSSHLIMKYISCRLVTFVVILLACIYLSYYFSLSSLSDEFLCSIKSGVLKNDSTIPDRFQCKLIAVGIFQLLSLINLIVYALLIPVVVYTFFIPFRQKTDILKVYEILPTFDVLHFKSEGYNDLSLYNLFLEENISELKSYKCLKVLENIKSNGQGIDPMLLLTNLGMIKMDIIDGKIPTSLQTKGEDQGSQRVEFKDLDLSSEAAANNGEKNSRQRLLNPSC

**Q.** `CCN(CC)S(=O)(=O)c1ccc2c(c1)c(=O)c(C(=O)O)cn2Cc1ccccc1` [12a, 1-Benzyl-6-(N,N-diethylsulfamoyl)-4-oxo-1,4-dihydroquinoline-3-carboxylic acid] was tested. Which inhibition at 50 µM (mPanx1 [1]) did it give?
**A.** The inhibition at 50 µM was 54.6 ± 6%.

**Q.** `CCN(CC)S(=O)(=O)c1ccc2c(c1)c(=O)c(C(=O)O)cn2Cc1ccc(S(N)(=O)=O)cc1` [12c, 6-(N,N-Diethylsulfamoyl)-4-oxo-1-(4-sulfamoylbenzyl)-1,4-dihydroquinoline-3-carboxylic acid] was tested. Which inhibition at 50 µM (mPanx1 [1]) did it give?
**A.** The inhibition at 50 µM was 49.5 ± 6%.

**Q.** How did the inhibition at 50 µM (mPanx1 [1]) turn out when `CCN(CC)S(=O)(=O)c1ccc2c(c1)c(=O)c(C(=O)O)cn2Cc1ccc(C(=O)O)cc1` [12b, 1-(4-Carboxybenzyl)-6-(N,N-diethylsulfamoyl)-4-oxo-1,4-dihydroquinoline-3-carboxylic acid] was run?
**A.** Its inhibition at 50 µM is 73.2 ± 11.9%.

**Q.** Which IC50 (mPanx1 [2]) does the source give for `CCCN(CCC)S(=O)(=O)c1ccc2c(c1)c(=O)c(C(=O)O)cn2Cc1ccc(S(N)(=O)=O)cc1` [12f, 6-(N,N-Dipropylsulfamoyl)-4-oxo-1-(4-sulfamoylbenzyl)-1,4-dihydroquinoline-3-carboxylic acid] here?
**A.** Its IC50 is 2.7 µM.

**Q.** For `CCCN(CCC)S(=O)(=O)c1ccc2c(c1)c(=O)c(C(=O)O)cn2Cc1ccc(C(=O)O)cc1` [12e, 1-(4-Carboxybenzyl)-6-(N,N-dipropylsulfamoyl)-4-oxo-1,4-dihydroquinoline-3-carboxylic acid], which inhibition at 50 µM (mPanx1 [3]) is on record?
**A.** Its inhibition at 50 µM is 84.8 ± 4.4%.

**Q.** With `NS(=O)(=O)c1ccc2c(c1)c(=O)c(C(=O)O)cn2Cc1ccc(C(=O)O)cc1` [5b, 1-(4-Carboxybenzyl)-4-oxo-6-sulfamoyl-1,4-dihydroquinoline-3-carboxylic acid] as the molecule, how does the inhibition at 50 µM (mPanx1 [1]) read?
**A.** The inhibition at 50 µM was 48.8 ± 5.9%.

**Q.** Which inhibition at 50 µM (mPanx1 [1]) does the source give for `CCCN(CCC)S(=O)(=O)c1ccc2c(c1)c(=O)c(C(=O)O)cn2CCc1ccccc1` [12g, 6-(N,N-Dipropylsulfamoyl)-4-oxo-1-phenethyl-1,4-dihydroquinoline-3-carboxylic acid] here?
**A.** The inhibition at 50 µM was 57.2 ± 8.5%.

**Q.** `O=C(O)c1ccc(CN(Cc2ccc(C(=O)O)cc2)S(=O)(=O)c2ccc3c(c2)c(=O)c(C(=O)O)cn3Cc2ccc(C(=O)O)cc2)cc1` [compound 7, 4,4′-{[((3-carboxy-1-(4-carboxybenzyl)-4-oxo-1,4-dihydroquinolin-6-yl)sulfonyl)azanediyl]bis(methylene)} dibenzoic acid] was tested. Which inhibition at 50 µM (mPanx1 [3]) did it give?
**A.** The inhibition at 50 µM was 79.7 ± 7.2%.
